From patent US9365541B2, “Compounds for use in the treatment of parasitic diseases” (IRBM—SCIENCE PARK S.P.A., priority 2012, dated 2016) come the findings set out here.

Assay [1] addresses T1, human HDAC1 (Homo sapiens, UniProt Q13547).
T1 construct: made in house; host or cells: HeLa (ATCC CCL-2), mammalian cells
As to the kind of experiment: Homo sapiens HDAC1 inhibition assay (Fluor-de-Lys, enzymatic). The assay is classed as biochemical. Particulars: human HDAC enzymatic assay; read-out: hHDAC IC50. The method, then: Biology Homo sapiens HDAC1 Inhibition Assay Overview:
The aim of the assay is to evaluate the inhibition of the deacetylase activity of human HDAC1. To such goal an acetylated substrate is added to the enzyme mix; the resulting enzymatic product is converted to a fluorescent molecule by the addition the enzyme trypsine (developer solution). Fluorescence intensity is inversely proportional to the rate of inhibition of the enzyme (as indicated in the material section below).
Reagents of the HDAC Fluorescent Activity Assay are purchased from Enzo Life Sciences (http://www.enzolifesciences.com/BML-AK500/fluor-de-lys-hdac-fluorometric-activity-assay-kit/) and feature the Fluor-de-Lys™ Substrate/Developer System.
c) Trichostatin A (TSA) Stock
TSA (Sigma-Aldrich, T8552) is provided as a 10 mM stock solution in 100% dimethylsulfoxide (DMSO).
Diluted Substrate Solution
The final concentration in the assay is 20 μM.
Diluted Developer Solution
2 μM [final] TSA to this solution increases its ability to stop the reaction.
The HDAC1 enzyme is diluted in assay buffer prior to each use from a fresh aliquot of enzyme.
The final concentration in the assay is 1-2 nM.
Test compounds should be prepared in 100% DMSO and transferred to the assay by a nano volume dispenser to reach the appropriate concentration and the appropriate DMSO concentration (0.25%) in the reaction.

The test system of assay [2] is Plasmodium falciparum 3D7. Description: P. falciparum growth inhibition assay (Pf-LDH). The assay is classed as cell-based. Particulars: Plasmodium falciparum, Erythrocyte; P. falciparum 3D7 infected erythrocytes, 72 h incubation, PfLDH readout. Here is the method:
Basic culture of Plasmodium falciparum 3D7 parasites (Malaria Research and Reference Reagent Resource Center (MR4), MR4 Number: MRA-102).
Starting with a culture with a parasitemia of about 10% (and 5% hematocrit), 0.5 ml of the culture is placed in a fresh 100 mm petri dish with 0.95 ml of fresh erythrocytes (50% hematocrit) and 8.55 ml of culture medium, giving a new starting parasitemia of 0.5%. The petri dish is then incubated at 37° C. in a humidified gas-tight plastic box flushed with a gas mixture consisting of 93% N2, 4% CO2, and 3% O2. The culture medium is changed daily. The supernatant is removed by gently tipping the dish without disturbing the settled cells and aspirating the medium with a Pasteur pipette connected to a vacuum pump. A small amount of the concentrated cells is taken to prepare a blood smear for determination of the parasitemia. Normally, the cultures are split twice a week. If the parasites are growing very slowly then fresh erythrocytes are added to the culture no later than after 7 days. The cultures are then split 1:2 if the parasitemia is lower than 0.5%. To avoid the necessity of daily medium change on weekends, a culture with a 2.5% hematocrit and 0.1-0.2% parasitemia is set up and can be left for 3 days without medium change.
Standard medium consists of RPMI 1640, supplemented with 25 mM HEPES, 24 mM NaHCO3, 0.36 mM hypoxanthine, 100 μg/ml Neomycin, 5 g/1 Albumax® II, and washed human red blood cells (rbcs) A+.
P. falciparum Growth Inhibition Assay (Pf-LDH)
Compounds of the invention were assessed for in vitro antimalarial activity against a cloroquine sensitive (3D7) strain of the malaria parasite Plasmodium falciparum, using a lactate dehydrogenase (PfLDH) assay.
EC50 Determination by Pf-LDH Assay
384 plates (where compounds to be tested are dispensed) with 25 μl of parasite inoculum (parasitemia: 0.25%, hematocrit: 2%) are incubated at 37° C. in an atmosphere of 4% CO2, 3% O2, 93% N2. After 72 h of incubation, plates are frozen at −70° C. overnight and thawed at room temperature for at least 4 h. To evaluate PfLDH activity, 70 μl of freshly made reaction mix (143 mM sodium L-lactate, 143 μM 3-acetyl pyridine adenine dinucleotide (APAD), 178.75 μM Nitro Blue tetrazolium chloride (NBT), 286 μg/ml diaphorase (2.83 U/ml), 0.7% Tween 20, 100 mM Tris-HCl pH 8.0) is dispensed using a Multidrop Combi dispenser. Plates are shaken to ensure mixing and absorbance at 650 nm is monitored in a plate reader after 10 min of incubation at room temperature.
Negative controls (0% Effect) are produced by addition of DMSO to the proper wells.
Positive controls (100% Effect) are produced by addition of 150 nM Artemisinin (Sigma-Aldrich, 361593)
After result normalization using positive and negative controls, compound potency is determined by fitting the following equation: % inh=Ymin+(Ymax−Ymin)/(1+(X/EC50)^slope)) Where: • Ymin=minimum percentage effect • Ymax=maximum percentage effect • EC50=the concentration of the compound at which 50% effect is reached • Slope=the slope of the curve calculated at the EC50 Histone Hyperacetylation and Immunodetection of Altered Histone Modifications Assay

T1 sequence (Q13547 whole entry): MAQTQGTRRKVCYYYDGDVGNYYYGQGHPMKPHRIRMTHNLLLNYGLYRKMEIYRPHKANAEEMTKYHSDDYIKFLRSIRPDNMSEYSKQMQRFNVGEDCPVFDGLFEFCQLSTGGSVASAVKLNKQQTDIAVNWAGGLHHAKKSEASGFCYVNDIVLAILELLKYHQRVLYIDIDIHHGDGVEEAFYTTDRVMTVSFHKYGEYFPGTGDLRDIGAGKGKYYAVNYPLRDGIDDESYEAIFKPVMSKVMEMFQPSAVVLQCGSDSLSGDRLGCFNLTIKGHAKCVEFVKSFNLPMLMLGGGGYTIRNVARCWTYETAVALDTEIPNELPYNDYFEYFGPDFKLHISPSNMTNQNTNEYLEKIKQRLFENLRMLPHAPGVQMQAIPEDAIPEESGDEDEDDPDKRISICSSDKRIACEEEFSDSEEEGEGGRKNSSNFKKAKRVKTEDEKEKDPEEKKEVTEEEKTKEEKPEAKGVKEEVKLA

On to `CNC(=O)CCCCC[C@H](NC(=O)c1cncs1)c1ncc(-c2ccc3nc(C(F)(F)F)ccc3c2)[nH]1` [Entry 19, (S)-N-(7-(methylamino)-7-oxo-1-(5-(2-(trifluoro-methyl)quinolin-6-yl)-1H-imidazol-2-yl)heptyl)thiazole-5-carboxamide], for which the IC50 in assay [1] fell in the range of 1000 to 5000 nM. In addition, the EC50 in assay [2] was in the range of 1000 to 5000 nM.

Regarding `CNC(=O)CCCCC[C@H](NC(=O)Cn1nnc(N2CCCC2)n1)c1ncc(-c2ccc3ccccc3c2)[nH]1` [Entry 20], the IC50 in assay [1] was less than 1000 nM. In assay [2], the EC50 was 1000 to 5000 nM.

Consider `CNC(=O)CCCCC[C@H](NC(=O)Cc1ccccc1)c1ncc(-c2ccc3ccccc3c2)[nH]1` [Entry 21], for which the IC50 in assay [1] was less than 1000 nM. Further, the EC50 in assay [2] lay within 1000 to 5000 nM.

Take `CNC(=O)CCCCC[C@H](NC(=O)Cc1cnc2ncnn2c1)c1ncc(-c2ccc3ccccc3c2)[nH]1` [Entry 22, (S)-7-(2-([1,2,4]triazolo[1,5-a]pyrimidin-6-yl)acetamido)-N-methyl-7-(5-(naphthalen-2-yl)-1H-imidazol-2-yl)heptanamide]: the IC50 in assay [1] was less than 1000 nM. Further, in assay [2], the EC50 was less than 1000 nM.

Consider `CNC(=O)CCCCC[C@H](NC(=O)CN1CCOCC1)c1ncc(-c2ccc3ccccc3c2)[nH]1` [Entry 23, (S)-N-methyl-7-(2-morpholinoacetamido)-7-(5-(naphthalen-2-yl)-1H-imidazol-2-yl)heptanamide], for which the IC50 in assay [1] is 1000 to 5000 nM. The EC50 in assay [2] fell in the range of 1000 to 5000 nM.

With `CNC(=O)CCCCC[C@H](NC(=O)c1cncs1)c1ncc(-c2ccc3[nH]ccc3c2)[nH]1` [Entry 24, (S)-N-(1-(5-(1H-indol-5-yl)-1H-imidazol-2-yl)-7-(methylamino)-7-oxoheptyl)thiazole-5-carboxamide], the IC50 in assay [1] is 1000 to 5000 nM. Besides, the EC50 in assay [2] is less than 1000 nM.

`CCOc1cccc2cc(-c3cnc([C@H](CCCCCC(=O)NC)NC(=O)c4cncs4)[nH]3)ccc12` [Entry 25, (S)-N-(1-(5-(5-ethoxynaphthalen-2-yl)-1H-imidazol-2-yl)-7-(methylamino)-7-oxoheptyl)thiazole-5-carboxamide]: the IC50 in assay [1] lay in the range of 1000 to 5000 nM. Besides, in assay [2], the EC50 was less than 1000 nM.

Consider `CNC(=O)CCCCC[C@H](NC(=O)C1CN(C)C1)c1ncc(-c2ccc3ccccc3c2)[nH]1` [Entry 26], for which, in assay [1], the IC50 was less than 1000 nM. The same compound registered an EC50 in assay [2] of 1000 to 5000 nM.

Turning to `CNC(=O)CCCCC[C@H](NC(=O)CCn1ccnc1)c1ncc(-c2cc3ccccc3nc2OC)[nH]1` [Entry 27, (S)-7-(3-(1H-imidazol-1-yl)propanamido)-7-(5-(2-methoxyquinolin-3-yl)-1H-imidazol-2-yl)-N-methylheptanamide], the IC50 in assay [1] was 1000 to 5000 nM. Besides, the EC50 in assay [2] is 1000 to 5000 nM.

For the compound `CCc1nc2ccccc2n1CCC(=O)N[C@@H](CCCCCC(=O)NC)c1ncc(-c2ccc(C(F)(F)F)cc2)[nH]1` [Entry 28], in assay [1], the IC50 was less than 1000 nM. The compound also yielded an EC50 in assay [2] of 1000 to 5000 nM.

In the case of `CNC(=O)CCCCC[C@H](NC(=O)c1cncs1)c1ncc(-c2ccc(-c3ccncc3)cc2)[nH]1` [Entry 29, (S)-N-(7-(methylamino)-7-oxo-1-(5-(4-(pyridin-4-yl)phenyl)-1H-imidazol-2-yl)heptyl)thiazole-5-carboxamide], in assay [1], the IC50 is 1000 to 5000 nM. Also, the EC50 in assay [2] was in the range of 1000 to 5000 nM.

Take `CNC(=O)CCCCC[C@H](NC(=O)c1csc(-c2cccnc2)n1)c1ncc(-c2cc3ccccc3nc2OC)[nH]1` [Entry 30]: the IC50 in assay [1] is more than 5000 nM. For the same compound, in assay [2], the EC50 is 1000 to 5000 nM.

As to `CNC(=O)CCCCC[C@H](NC(=O)c1nnc(C)s1)c1ncc(-c2cc3ccccc3nc2OC)[nH]1` [Entry 31, (S)-N-(1-(5-(2-methoxyquinolin-3-yl)-1H-imidazol-2-yl)-7-(methylamino)-7-oxoheptyl)-5-methyl-1,3,4-thiadiazole-2-carboxamide], the IC50 in assay [1] was less than 1000 nM. In assay [2], this compound yielded an EC50 of 1000 to 5000 nM.

With `CNC(=O)CCCCC[C@H](NC(=O)CN1CCC(N(C)C)C1)c1ncc(-c2cc3ccccc3nc2OC)[nH]1` (stereo partly drawn) [Entry 32, (7S)-7-(2-(3-(dimethyl-amino)pyrrolidin-1-yl)acetamido)-7-(5-(2-methoxyquinolin-3-yl)-1H-imidazol-2-yl)-N-methylheptanamide], the concentration for half-maximal inhibition (IC50) in assay [1] is less than 1000 nM. This compound yielded an EC50 in assay [2] of more than 5000 nM.

Regarding `CNC(=O)CCCCC[C@H](NC(=O)C1CCCN(C)C1)c1ncc(-c2cc3ccccc3nc2OC)[nH]1` (stereo partly drawn) [Entry 33, N-((S)-1-(5-(2-methoxyquinolin-3-yl)-1H-imidazol-2-yl)-7-(methylamino)-7-oxoheptyl)-1-methylpiperidine-3-carboxamide], in assay [1], the IC50 was less than 1000 nM. Besides, the EC50 in assay [2] was in the range of 1000 to 5000 nM.

For `CNC(=O)CCCCC[C@H](NC(=O)c1cnsc1)c1ncc(-c2ccc3[nH]ncc3c2)[nH]1` [Entry 34, (S)-N-(1-(5-(1H-indazol-5-yl)-1H-imidazol-2-yl)-7-(methylamino)-7-oxoheptyl)isothiazole-4-carboxamide], the IC50 in assay [1] lay within 1000 to 5000 nM. In assay [2], this compound returned an EC50 of 1000 to 5000 nM.

With `CNC(=O)CCCCC[C@H](NC(=O)c1cncs1)c1ncc(-c2cccc(CN)c2)[nH]1` [Entry 35, (S)-N-(1-(5-(3-(amino-methyl)phenyl)-1H-imidazol-2-yl)-7-(methylamino)-7-oxoheptyl)thiazole-5-carboxamide], in assay [1], the IC50 fell in the range of 1000 to 5000 nM. The compound also had an EC50 in assay [2] of less than 1000 nM.

`CNC(=O)CCCCC[C@H](NC(=O)c1cncs1)c1ncc(-c2cnc3ccccc3c2)[nH]1` [Entry 36, (S)-N-(7-(methylamino)-7-oxo-1-(5-(quinolin-3-yl)-1H-imidazol-2-yl)heptyl)thiazole-5-carboxamide]: in assay [1], the concentration for half-maximal inhibition (IC50) is 1000 to 5000 nM. For the same compound, the EC50 in assay [2] is less than 1000 nM.

For the compound `CNC(=O)CCCCC[C@H](NC(=O)OCc1ccccc1)c1ncc(-c2ccc(-c3cc[nH]n3)cc2)[nH]1` [Entry 37, (S)-benzyl(1-(5-(4-(1H-pyrazol-3-yl)phenyl)-1H-imidazol-2-yl)-7-(methylamino)-7-oxoheptyl)carbamate], the IC50 in assay [1] was less than 1000 nM. The EC50 in assay [2] lay in the range of 1000 to 5000 nM.

Take `CNC(=O)CCCCC[C@H](NC(=O)CCc1c(C)nc2ncnn2c1C)c1ncc(-c2ccc(-n3cccn3)cc2)[nH]1` [Entry 38, (S)-7-(5-(4-(1H-pyrazol-1-yl)phenyl)-1H-imidazol-2-yl)-7-(3-(5,7-dimethyl-[1,2,4]triazolo[1,5-a]pyrimidin-6-yl)propanamido)-N-methylheptanamide]: the IC50 in assay [1] is 1000 to 5000 nM. The same compound gave an EC50 in assay [2] of 1000 to 5000 nM.

In the case of `CNC(=O)CCCCC[C@H](NC(=O)CC1=CSC2=NCCCN12)c1ncc(-c2ccc(-n3cccn3)cc2)[nH]1` [Entry 39, (S)-7-(5-(4-(1H-pyrazol-1-yl)phenyl)-1H-imidazol-2-yl)-7-(2-(6,7-dihydro-5H-thiazolo[3,2-a]pyrimidin-3-yl)acetamido)-N-methylheptanamide], the IC50 in assay [1] was 1000 to 5000 nM. In assay [2], this compound gave an EC50 of 1000 to 5000 nM.

In the case of `CNC(=O)CCCCC[C@H](NC(=O)C1(C)CCOCC1)c1ncc(-c2ccc3ccccc3c2)[nH]1` [Entry 40], the IC50 in assay [1] was in the range of 1000 to 5000 nM. In addition, the EC50 in assay [2] was 1000 to 5000 nM.

The IC50 is the point on the concentration scale where inhibition reaches its midpoint. In general, EC50 refers to the concentration giving half of the maximal effect.
